As a reminder, the MBC is the lowest tested concentration that kills the bacteria rather than only halting them. Low values mean more potent killing, high ones less potent killing. By MIC is commonly meant the lowest concentration that inhibits growth of the organism. A high value points to weaker potency. As a reminder, the Kd is the free concentration of one partner at which half of the binding sites on the other are occupied at equilibrium, for simple one-to-one binding. A low value points to tighter binding. The term melting point denotes the temperature, or range, at which the solid turns liquid. One may read the IC50 as the concentration at which inhibition is half-maximal.

For series [1], the system named is methicillin-resistant S. aureus (ATCC 43300). Nature of the series: MIC and MBC, broth dilution, MRSA ATCC 43300. The format is cell-based. The following applies: Staphylococcus aureus. As for the experimental part: (§1) The synthesized pleuromutilin derivatives 8–30 were tested against four Gram-positive bacteria (MRSA ATCC 43300, S. aureus ATCC 29213 and two clinical strains of S. aureus (AD3 and 144) isolated from Guangdong Province). Tiamulin was used as the positive control in this experiment.
(§2) MIC values were tested following our previous work. The derivatives were dissolved in an aqueous solution of 2.5% tween-80 and 2.5% DMSO to make a solution with a concentration of 1000 µg/mL. The solution was diluted 12 times with MH broth to give a concentration range of 32–0.01 µg/mL. The bacteria (5 × 10^5 CFU/mL) were added in each well. For each compound concentration, three parallel experiments were set. The 96-well plate was incubated for 22–26 h at 37 °C. The MIC value was recorded as the minimal concentration that inhibits the visible growth of tested bacteria completely.
(§3) The MBC of these pleuromutilin derivatives were tested according to a previously reference. […] Then, the values of MBC were determined by laying 100 μL aliquots from the wells onto the MH agar plates without visible growth. The MH agar plate was cultured for a further 22–26 h at 37 °C.

The next series relates to S. aureus (ATCC 29213). Nature of the series: MIC and MBC, broth dilution, S. aureus ATCC 29213. In kind it is cell-based. The following applies: Staphylococcus aureus, ATCC29213. As for the experimental part: as §1, §2, §3
For orientation: Broth dilution looks for growth in wells or tubes with falling amounts of substance.

A further series has as its system S. aureus (AD3). The series is described as follows: MIC and MBC, broth dilution, S. aureus AD3. The following applies: Staphylococcus aureus; S. aureus AD3 (clinical strain). The format is cell-based. As for the experimental part:
as §1, §2, §3

Another series relates to S. aureus (144). The series is described as follows: MIC and MBC, broth dilution, S. aureus 144. In kind it is cell-based. As to conditions: Staphylococcus aureus; S. aureus 144 (clinical strain). On the procedure:
as §1, §2, §3

For the next series, the system named is 50S ribosome. The series is described as follows: SPR interaction and affinity analysis. In kind it is binding, S. aureus ATCC 43300. As to conditions: 4 °C; for Avg ka / Avg kd: 1:1 Langmuir binding; for Kd: KD = Kd/Ka. As for the experimental part: S. aureus ATCC 43300 was used to prepare the 50S ribosomal subunit the same way as described previously. Cells were grown overnight in Brain Heart Infusion broth at 37 °C and harvested for 1.5 h at an OD600. Cells were washed with 10 mM Tris-HCl twice at pH = 7.5, and resuspended in 5 mL buffer A (20 mM HEPES-HCl pH = 7.5, 21 mM Mg(OAc)2, 100 mM NH4Cl, 1 mM DTT, 1 mM EDTA). Cells were broken by an ultrasound crusher. The lysate was centrifuged for 90 min at 20,000× g to clear cell debris.
The solution was layered on a sucrose cushion of 15 mL (10 mM Hepes-KOH pH 7.5, 25 mM Mg(OAc)2, 500 mM KCl, […], 1 mM DTT, 0.5 mM EDTA). Centrifugation was carried out for 15 h at 45,000 rpm using an ultracentrifuge Beckman (Beckman Coulter, Shanghai, China), Type 70Ti rotor. The crude ribosome pellet was resuspended in buffer E (10 mM Hepes-KOH pH 7.5, 10 mM Mg(OAc)2, 100 mM KCl, 1 mM DTT, 0.5 mM EDTA), then layered on 9 mL of 7–30% sucrose gradient and centrifuged in an ultracentrifuge Beckman, type SW40Ti rotor at 17,100 rpm for 15 h. The gradient was analyzed on the AKTA explorer system (Amersham, UK). The fractions corresponding to the 50S ribosomal subunit were collected and further subjected to precipitation by PEG 20,000. The 50S ribosomal subunit pellet was gently dissolved in 200 µL of storage buffer (10 mM HEPES-HCl pH = 7.5, 10 mM Mg(OAc)2, 15 mM KCl, 60 mM NH4Cl, 1 mM DTT) and stored at −80 °C.
SPR affinity analysis was performed on the bScreen LB 991 Label-free Microarray System (Berthold Technologies, Black Forest, Germany) at 4 °C and Biodot AD-1520 Array Printer (BIODOT Inc., Irvine, CA, USA) with a Photo-cross-linker SensorCHIP™. Concentrations of each compound were diluted to 100 μM with DMSO as the printing working solution for immobilization. A Biodot AD-1520 Array Printer (BIODOT Inc., CA, USA) was used to control the photo-cross-linker sensor chip and print samples. Each sample was printed four times. In order to check the chip quality and check whether the detection system works, DMSO was used as a system-negative control and rapamycin as a positive control. All positive control dots were divided into four groups and printed on the four corners of the sensor chip. The sensor chip was dried in vacuum after the array print and quickly transferred to a spectra radiator for a photo cross-linking reaction. The sensor chip was washed with C2H5OH, DMF and H2O in turn and evaporated in a N2 atmosphere for 15 min. Then, the Flowcell Cover were assembled.
The 50S ribosome was diluted separately to 200 nM, 400 nM, 800 nM, 1600 nM and 3200 nM with PBST (pH = 7.4, 0.1% Tween 20). Different concentrations of ribosome solutions were injected at a flow rate of 0.5 μL⋅s^−1 for 600 s at the associating stage at 4 °C, followed by PBST at a flow rate of 0.5⋅μL·s^−1 for 360 s at each dissociating stage. Then, the surface was regenerated with Glycine-HCl (pH = 2.0) at a flow rate of 2⋅μL·s^−1 for 300 s.
The raw data of the binding process of compounds and the 50S ribosome were recorded in real time. We compared the response unit (RU) of surface resonance to determine the different binding affinity between each sample dot. The process and analysis of association rate constants (Ka) and dissociation rate constants (Kd) and the equilibrium dissociation constant (KD, Kd/Ka) were performed using the data analysis software of the bScreen LB 991 Label-free Microarray System according to a single-site binding model (1:1 Langmuir binding) with mass transfer limitations for binding kinetics determination.

The subject of a further series is MRSA. The series is described as follows: Neutropenic murine thigh infection model. In kind it is in vivo, mice. As to conditions: 20 mg/kg intravenously, 24 h, compared to the no-drug control group. On the procedure: The neutropenic murine thigh infection model experiment was performed as described in the literature. Six-week-old SPF-ICR female mice weighing 24–28 g were used for this study. The mice were injected with cyclophosphamide (Mead Johnson Pharmaceuticals, Evansville, Indiana—IN, USA) at a dose of 150 mg/kg 4 days and at a dose of 100 mg/kg 1 day before the experiment to reduce neutrophils and achieve immunosuppression (<0.1 × 10^9/L). A total of 0.1 mL MH broth (MRSA concentration approximately 10^7 CFU/mL) was injected into the posterior thigh of mice to establish the infection model. After the thighs of the mice were infected for 2 h, these mice were randomly divided into 3 groups (3 per group). […] A total of 24 h after the completion of the drug, the mice were euthanized and their thigh tissues were collected. Then, their thigh tissues were weighed and homogenized, respectively, in 3 mL of iced sterile saline. Tissue homogenate was serially diluted 10-fold and plated on MH agar. The resulting bacterial colonies were determined after incubation for 24 h.

In a further series the test system is MRSA ATCC 43300. Set-up: method as in PMID 33137559. The following applies: cited from earlier work.
The target of another series is CYP3A4 (Homo sapiens, UniProt P08684). The following applies: read-out: IC50 CYP3A4, cited from earlier work.

In brackets after ≈: the same amount, converted by molar mass. Where two headings read alike, the source gives them in different places.

CYP3A4, sequence (P08684 whole entry): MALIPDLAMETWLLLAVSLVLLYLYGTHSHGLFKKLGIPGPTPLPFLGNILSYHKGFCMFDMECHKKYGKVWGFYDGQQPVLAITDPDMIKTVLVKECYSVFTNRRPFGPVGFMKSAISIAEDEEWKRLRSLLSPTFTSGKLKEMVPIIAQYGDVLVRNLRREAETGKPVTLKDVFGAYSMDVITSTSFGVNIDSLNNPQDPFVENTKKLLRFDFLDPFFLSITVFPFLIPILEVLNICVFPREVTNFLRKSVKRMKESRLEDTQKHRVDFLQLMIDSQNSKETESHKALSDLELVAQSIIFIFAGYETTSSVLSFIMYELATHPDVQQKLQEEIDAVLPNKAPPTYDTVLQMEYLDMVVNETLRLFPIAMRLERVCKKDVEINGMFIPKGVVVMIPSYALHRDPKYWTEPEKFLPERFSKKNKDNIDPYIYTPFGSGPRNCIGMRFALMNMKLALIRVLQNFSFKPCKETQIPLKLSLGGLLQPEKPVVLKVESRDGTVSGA

For `C=C[C@]1(C)C[C@@H](OC(=O)CNC23CC4CC(CC(C4)C2)C3)[C@]2(C)[C@H](C)CC[C@]3(CCC(=O)[C@H]32)[C@@H](C)[C@@H]1O` [Compound 27, 22-Amantadineyl-22-deoxypleuromutilin], the melting point was in the range of 105 to 109 °C. For the same molecule, in series [1], the MBC turned out to be 0.25 µg/mL (≈ 0.489 µM) and the MIC came to 0.25 µg/mL (≈ 0.489 µM). In the series on S. aureus (ATCC 29213), this molecule registered an MBC of 1 µg/mL (≈ 1.95 µM) and an MIC of 0.5 µg/mL (≈ 0.977 µM). Also, in the series on S. aureus (AD3), the MBC came out at 4 µg/mL (≈ 7.82 µM) and the MIC worked out at 2 µg/mL (≈ 3.91 µM). In the series with S. aureus (144), this molecule gave a minimal bactericidal concentration (MBC) of 8 µg/mL (≈ 15.6 µM) and an MIC of 4 µg/mL (≈ 7.82 µM). For the same molecule, in the series with 50S ribosome, the Avg ka stood at 7.36 M⁻¹ s⁻¹; the Avg kd is 0.0215 s⁻¹; the affinity, expressed as Kd, was 2920 µM.
`C=C[C@]1(C)C[C@@H](OC(=O)CNCCO)[C@]2(C)[C@H](C)CC[C@]3(CCC(=O)[C@H]32)[C@@H](C)[C@@H]1O` [Compound 28, 22-Ethanolamine-22-deoxypleuromutilin]: the melting point was 91 to 94 °C. In [1], this molecule registered an MBC of 2 µg/mL (≈ 4.74 µM) and an MIC of 1 µg/mL (≈ 2.37 µM). Further, in the series with S. aureus (ATCC 29213), the MBC was 8 µg/mL (≈ 19 µM) and the MIC stood at 2 µg/mL (≈ 4.74 µM). Moreover, in the series with S. aureus (AD3), the MBC came to 8 µg/mL (≈ 19 µM) and the MIC worked out at 2 µg/mL (≈ 4.74 µM). Also, in the series with S. aureus (144), the MBC worked out at 4 µg/mL (≈ 9.49 µM) and the MIC worked out at 4 µg/mL (≈ 9.49 µM). In the series with 50S ribosome, this molecule came in with an Avg ka of 2730 M⁻¹ s⁻¹, an Avg kd of 0.0272 s⁻¹ and an equilibrium dissociation constant (Kd) of 9.96 µM.
`C=C[C@]1(C)C[C@@H](OC(=O)CN2CCOCC2)[C@]2(C)[C@H](C)CC[C@]3(CCC(=O)[C@H]32)[C@@H](C)[C@@H]1O` [Compound 29, 22-Morpholine-22-deoxypleuromutilin] came in with a melting point of 157 to 159 °C. For the same molecule, in series [1], the MBC worked out at 1 µg/mL (≈ 2.23 µM) and the MIC was found to be 1 µg/mL (≈ 2.23 µM). Moreover, in the series on S. aureus (ATCC 29213), the MBC stood at 2 µg/mL (≈ 4.47 µM) and the MIC turned out to be 2 µg/mL (≈ 4.47 µM). In the series with S. aureus (AD3), this molecule returned an MBC of 8 µg/mL (≈ 17.9 µM) and an MIC of 2 µg/mL (≈ 4.47 µM). Further, in the series on S. aureus (144), the MBC was 4 µg/mL (≈ 8.94 µM) and the MIC is 2 µg/mL (≈ 4.47 µM). In the series with 50S ribosome, this molecule yielded an Avg ka of 1.57 M⁻¹ s⁻¹ and an Avg kd of 0.872 s⁻¹.
As to `C=C[C@]1(C)C[C@@H](OC(=O)CN2CCSCC2)[C@]2(C)[C@H](C)CC[C@]3(CCC(=O)[C@H]32)[C@@H](C)[C@@H]1O` [Compound 30, 22-Thiomorpholine-22-deoxypleuromutilin], the melting point fell in the range of 82 to 83 °C. Further, in series [1], the MBC is 2 µg/mL (≈ 4.31 µM) and it took 1 µg/mL (≈ 2.16 µM) to inhibit growth (MIC). In the series on S. aureus (ATCC 29213), this molecule showed an MBC of 2 µg/mL (≈ 4.31 µM) and an MIC of 1 µg/mL (≈ 2.16 µM). For the same molecule, in the series with S. aureus (AD3), the MBC was found to be 4 µg/mL (≈ 8.63 µM) and the MIC was determined as 1 µg/mL (≈ 2.16 µM). For the same molecule, in the series on S. aureus (144), the MBC turned out to be 4 µg/mL (≈ 8.63 µM) and it took 2 µg/mL (≈ 4.31 µM) to inhibit growth (MIC). Besides, in the series on 50S ribosome, the Avg kd came out at 0.00021 s⁻¹ and the affinity, expressed as Kd, was 7.77 µM.
For `C=C[C@]1(C)C[C@@H](OC(=O)CSCCN(CC)CC)[C@]2(C)[C@H](C)CC[C@]3(CCC(=O)[C@H]32)[C@@H](C)[C@@H]1O` [Tiamulin, tiamulin, reference compound], the MBC in series [1] was found to be 0.25 µg/mL (≈ 0.506 µM); in the series on S. aureus (ATCC 29213) it was 1 µg/mL (≈ 2.03 µM); in the series with S. aureus (AD3), 1 µg/mL (≈ 2.03 µM); against S. aureus (144) it was 8 µg/mL (≈ 16.2 µM). For the same molecule, the MIC in series [1] was found to be 0.25 µg/mL (≈ 0.506 µM); with S. aureus (ATCC 29213) it was 0.5 µg/mL (≈ 1.01 µM); against S. aureus (AD3) it was 1 µg/mL (≈ 2.03 µM); in the series on S. aureus (144), 1 µg/mL (≈ 2.03 µM). Also, in the series with 50S ribosome, the Avg ka is 121 M⁻¹ s⁻¹. For the same molecule, the Avg kd in the series with 50S ribosome came out at 3.03e-06 s⁻¹. In addition, the Kd on 50S ribosome was found to be 0.025 µM. Moreover, the “reduction of MRSA load in thigh” value in the series with MRSA was ~ 0.6 log10 CFU/mL. For the same molecule, the PAE with MRSA ATCC 43300 (2× MIC) is 1.65 h; in the series on MRSA ATCC 43300 (4× MIC), 2.04 h. The IC50 at CYP3A4 and on CYP3A4 (converted with MW) was 1640 nM each time.

These data come from paper PMC8838415, “Discovery of Novel Pleuromutilin Derivatives as Potent Antibacterial Agents for the Treatment of MRSA Infection” (Molecules, 2022).
